Laboratory results taken from publication PMC11476552, “Synthesis and Preliminary Studies for In Vitro Biological Activity of Two New Water-Soluble Bis(thio)carbohydrazones and Their Copper(II) and Zinc(II) Complexes” (International Journal of Molecular Sciences, 2024).
Where two headings read alike, the source gives them in different places.

Experiment: Proton dissociation constants by UV-visible spectrophotometry
Format: physicochemical
Conditions: aqueous buffer solutions
Source text: The proton dissociation constants of Na2H4L^1·5.5 H2O (bis-TCH) were studied by registering the UV–visible spectra in aqueous solution between pH 3.98 and 10.00 (Figure 1A).
Between pH = 3.98 and 6.00, the solutions were colourless with absorption maxima at 237 and 320 nm. From pH = 6.49, the solution was pale green, and the colour became more intense until pH = 10.00; the colour change was accompanied by the appearance of bands at 253 and 393 nm, with a shoulder at 445 nm. […] This value is similar to that reported for the deprotonation of the phenolic moiety of sodium 5-sulfonate-salicylaldehyde thiosemicarbazones. The values of pKa1 and pKa2, associated with the proton dissociation of the sulfonic groups, are expected to have much lower values (below 3) and could not be determined from these experiments. Potentiometric titrations were performed in an attempt to determine the value of the pKa of the hydrazidic NH protons (pKa5 and pKa6) and, possibly, those of the protonated sulfonate groups. Effectively, potentiometric data allowed us to determine the pKa5 value, along with pKa3 and pKa4 (Table 2). The values of pKa3 and pKa4 obtained by potentiometry are consistent with those obtained by spectrophotometric titrations.
Similarly, the proton dissociation constants of bis-CH were studied spectrophotometrically in aqueous solution between pH = 3.98 and 10.00 (Figure 1B). […] The spectrophotometric data were processed by means of HypSpec2014 software, leading to pKa3 = 7.34(1) and pKa4 = 8.58(1), which were assigned to the deprotonation of the two phenolic OH groups (Table 2). As for bis-TCH, the single-site pKa value of the phenolic groups can be estimated as the average pKa (7.96). Additionally, to complete the analysis, we carried out potentiometric titrations of bis-CH starting from a very acidic pH. […] Importantly, no dissociation of the hydrazidic NH groups was observed, a behaviour consistent with that reported in the literature.
The UV–visible spectra were collected using a Thermo Scientific Evolution 260 Bio spectrophotometer equipped with a Peltier temperature controller. Aqueous buffer stock solutions (50 mM) were prepared as follows: acetate buffer solutions (pH = 3.98, 4.62, and 5.00) were prepared by mixing appropriate volumes of AcOH 50 mM and AcONa·3H2O 50 mM solutions. MES (pH = 5.51, 6.00, and 6.49), HEPES (pH = 7.00, 7.48, and 8.01) and CHES (pH = 8.62, 9.01, 9.51, and 10.00) buffer solutions were obtained by suspending appropriate amounts of solid MES/HEPES/CHES in water, adding aqueous NaOH 100 mM until the desired pH was reached. The pH was measured using a Crison Basic 20 pH meter connected with a Hamilton glass electrode. Calibration of the glass electrode was carried out daily. All solutions were prepared using double-distilled water. For all the solutions, the ionic strength was 0.1 M NaCl.
Samples used for the study of protonation equilibria of the ligands were prepared as follows. […] For each solution, the absorption spectrum was collected in the 220–600 nm range at 298.2 K. The spectral data collection was carried out immediately after the preparation of the samples and repeated after 3 and 10 min for all the samples at different pH values to check the stability of the ligand. […] The complex formation equilibria at pH 2.5 or 7.4 of bis-TCH and bis-CH with Cu(II) and Zn(II) ions were studied by direct spectrophotometric titrations of solutions of the ligands with the metal ions, and the samples were prepared as follows. Appropriate aliquots of the stock solutions of the ligands were diluted in a quartz cuvette of 1 cm path length using HEPES buffer (pH 7.4) or by adding HCl aqueous solution (pH 2.5) to obtain ca. 17 µM ligand solutions in a total volume of 2.6 mL. […]

[1] = UV-visible spectrophotometry, aqueous solution, T = 298.2 K, phenolic group, read-out: pKa3
[2] = UV-visible spectrophotometry, aqueous solution, T = 298.2 K, phenolic group, read-out: pKa4
[3] = average of spectrophotometric pKa3 and pKa4, read-out: single-site pKa value of the phenolic groups (average pKa)

Compound	pKa [1]	pKa [2]	pKa [3]
COc1cc(S(=O)(=O)[O-])cc(/C=N/NC(=O)N/N=C/c2cc(S(=O)(=O)[O-])cc(OC)c2O)c1O.[Na+].[Na+] [bis-CH, Bis-(sodium 3-methoxy-5-sulfonate-salicylaldehyde)-carbohydrazone]	7.34	8.58	7.96
COc1cc(S(=O)(=O)[O-])cc(/C=N/NC(=S)N/N=C/c2cc(S(=O)(=O)[O-])cc(OC)c2O)c1O.[Na+].[Na+] [bis-TCH, Bis-(sodium 3-methoxy-5-sulfonate-salicylaldehyde)-thiocarbohydrazone]	6.78	8.77	7.78
